Assay results taken from patent publication US6362134B1, “Herbicidal 1,2,4,6-thiatriazines” (Syngenta Investment Corporation, priority 1996, dated 2002).

Key:
Avena = test: Herbicidal action before emergence of the plants (pre-emergent action); assay type: in vivo; settings: 2000 g of active substance/ha, sprayed immediately after sowing, evaluated after 3 weeks, ratings scale of nine levels (1=complete damage, 9=no action)
Procedure: (§1) Monocotyledon and dicotyledon test plants are sown in standard soil in plastic pots. Immediately after sowing, the test substances are sprayed on (500 l of water/ha) in an aqueous suspension prepared from a 25% wettable powder (Example F3, b)), corresponding to a dosage of 2000 g of active substance/ha. The test plants are then grown under optimum conditions in a greenhouse. After a test period of 3 weeks, the test is evaluated with a ratings scale of nine levels (1=complete damage, 9=no action). Ratings of 1 to 4 (in particular 1 to 3) mean a good to very good herbicidal action.
(§2) Test plants: Avena, Setaria, Sinapis, Stellaria

Stellaria [1] = test: as above; assay type: in vivo; design: key: 1=complete damage; 9=no action; Ratings of 1 to 4 (in particular 1 to 3) mean a good to very good herbicidal action; settings: 2000 g of active substance/ha, sprayed immediately after sowing, evaluated after 3 weeks, ratings scale of nine levels
Procedure: as §1, §2

Setaria = test: as above; assay type: in vivo; design: key: 1=complete damage; 9=no action; Ratings of 1 to 4 (in particular 1 to 3) mean a good to very good herbicidal action; settings: 2000 g of active substance/ha, sprayed immediately after sowing, evaluated after 3 weeks, ratings scale of nine levels
Procedure: as §1, §2

Sinapis [2] = test: as above; assay type: in vivo; design: key: 1=complete damage; 9=no action; Ratings of 1 to 4 (in particular 1 to 3) mean a good to very good herbicidal action; settings: 2000 g of active substance/ha, sprayed immediately after sowing, evaluated after 3 weeks, ratings scale of nine levels
Procedure: as §1, §2

Stellaria [3] = test: Post-emergent herbicidal action (contact herbicide); assay type: in vivo; design: key: 1=complete damage; 9=no action; Ratings of 1 to 4 (in particular 1 to 3) mean a good to very good herbicidal action; settings: 2000 g of active substance/ha, sprayed in the 4- to 6-leaf stage, evaluated after about 18 days, ratings scale 1-9
Procedure: (§3) Monocotyledon and dicotyledon test plants are grown in plastic pots with standard soil in a greenhouse and, in the 4- to 6-leaf stage, are sprayed with an aqueous suspension of the test substances of the formula 1, prepared from a 25% wettable power (Example F3, b)), corresponding to a dosage of 2000 g of active substance/ha (500 l of water/ha). The test plants are then grown further in the greenhouse under optimum conditions. After a test period of about 18 days, the test is evaluated with a ratings scale of 9 levels (1=complete damage, 9=no action). Ratings of 1 to 4 (in particular 1 to 3) mean a good to very good herbicidal action.
(§4) Test plants: Sinapis, Stellaria

Sinapis [4] = test: as above; assay type: in vivo; design: key: 1=complete damage; 9=no action; Ratings of 1 to 4 (in particular 1 to 3) mean a good to very good herbicidal action; settings: 2000 g of active substance/ha, sprayed in the 4- to 6-leaf stage, evaluated after about 18 days, ratings scale 1-9
Procedure: as §3, §4

[5] = Stability of the isolated compound when left to stand; assay type: physicochemical; settings: isolated product
Procedure: 4.09 g (0.02 mol) of 1,3,5-trichlorothiatriazine are stirred as a suspension in 50 ml of carbon tetrachloride at −25° C., and a solution of 0.70 g (0.022 mol) of methanol in a little carbon tetrachloride is added dropwise. During this operation, the trichlorothiatriazine dissolves apart from a little insoluble product. The mixture is then warmed to 0° C. and filtered and the filtrate is concentrated on a rotary evaporator at a maximum of 50° C. 3.25 g of the desired product, which, according to the ^13C-NMR spectrum and thin layer chromatogram (silica gel; eluting agent ethyl acetate/hexane 1/3), contains practically no further impurities, are obtained as the residue.

Structure (SMILES)	melting point [°C]	Pre-emergent action, rating, Avena (Avena)	Pre-emergent action, rating, Stellaria (Stellaria [1])	Pre-emergent action, rating, Setaria (Setaria)	Pre-emergent action, rating, Sinapis (Sinapis [2])	Post-emergent action, rating, Stellaria (Stellaria [3])	Post-emergent action, rating, Sinapis (Sinapis [4])	stability when left to stand [5]
COC1=NS(OC)=NC(Oc2cc(F)ccc2F)=N1 (stereo not shown) [Example H10, 1,3-dimethoxy-5-(2′,5′-di-fluorophenoxy)thiatriazine]	75 to 76	–	–	–	–	–	–	–
CC(C)OS1=NC(N)=NC(Oc2cc(F)ccc2F)=N1 (stereo not shown) [Example H14, 3-amino-1-isopropoxy-5-(2′,5′-difluorophenoxy)thiatriazine]	163 to 164	–	–	–	–	–	–	–
CC1(C)CC2CC(C)(CN2S2=NC(N)=NC(Oc3c(F)c(F)c(F)c(F)c3F)=N2)C1 (single isomer, unassigned) [6.154]	–	4	1	1	1	1	1	–
CCN(C1CC(C)CC(C)(C)C1)S1=NC(N)=NC(Oc2c(F)c(F)c(F)c(F)c2F)=N1 (stereo not shown) [6.140]	–	4	1	3	2	3	2	–
NC1=NC(Oc2c(F)c(F)c(F)c(F)c2F)=NS(N2CCCC3CCCCC32)=N1 (stereo not shown) [6.37]	–	3	1	2	1	2	3	–
CCCN(CCC)S1=NC(N)=NC(Oc2cc(F)ccc2F)=N1 (stereo not shown) [Example H17, 3-amino-1-dipropylamino-5-(2′,5′-difluorophenoxy)thiatriazine]	184 to 185	–	–	–	–	–	–	–
CC1CC(N(C)S2=NC(N)=NC(Oc3c(F)c(F)c(F)c(F)c3F)=N2)CC(C)(C)C1 (stereo not shown) [6.194]	–	7	2	5	2	4	2	–
CC(C)(C)C1CCC(OS2=NC(N)=NC(Oc3c(F)c(F)c(F)c(F)c3F)=N2)CC1 (stereo not shown) [5.127]	–	4	1	2	1	3	2	–
CC1CCN(S2=NC(N)=NC(Oc3c(F)c(F)c(F)c(F)c3F)=N2)C2CCCCC12 (stereo not shown) [6.285]	–	5	1	2	1	3	2	–
CN(Cc1ccccc1)S1=NC(N)=NC(Oc2c(F)c(F)c(F)c(F)c2F)=N1 (stereo not shown) [6.192]	–	2	1	1	1	4	2	–
NC1=NS(N2CCC[C@H]3CCCC[C@H]32)=NC(Oc2c(F)c(F)cc(F)c2F)=N1 (relative stereo) [6.331]	–	4	1	2	1	2	1	–
NC1=NC(Oc2c(F)c(F)c(F)c(F)c2F)=NS(OC2CCCCCCC2)=N1 (stereo not shown) [5.176]	–	4	1	2	1	2	2	–
CC1(C)CCCC(OS2=NC(N)=NC(Oc3c(F)c(F)c(F)c(F)c3F)=N2)C1 (stereo not shown) [5.131]	–	4	1	2	1	3	1	–
COS1=NC(Cl)=NC(Cl)=N1 (stereo not shown) [Example H3, 1-methoxy-3,5-dichlorothiatriazine]	–	–	–	–	–	–	–	unstable and decomposes within a few hours when left to stand
NC1=NS(N2CCc3ccccc3C2)=NC(Oc2c(F)c(F)c(F)c(F)c2F)=N1 (stereo not shown) [6.145]	–	4	1	2	1	3	3	–
